From patent US20140004108A1, “Methods for Modulation of Autophagy Through the Modulation of Autophagy-Enhancing Gene Products” (HARVARD MEDICAL SCHOOL, priority 2009, published 2014) come the findings set out here.

“Also recorded” adds a separate entry of the source.

Common to all, as to format: cell-based, human
The test system of test [1] is LC3. Nature of the test: Western blot of autophagy markers (LC3 II, p62, Atg12-Atg5). The conditions noted are these: for autophagy by LC3 western blot (LC3 II/tubulin ratio): 100 ng/mL IGF1, 50 ng/mL FGF2, LIF or CLCF1, 10 μg/mL E64d, with or without 50 nM rapamycin pre-treatment. As to the method:
(§1) For the cytokine assays, cells were seeded at 0.5×10^5 in full medium in either 24-well (western) or 96-well (LC3-GFP quantification) plates. After 24 hours, cells were washed in PBS and serum-free OPTIMEM™ medium (Invitrogen) was added along with the indicated growth factors and/or cytokines for an additional 24 hours. Growth factors and cytokines used include human TNFα (Cell Sciences), human LIF (GeneScript Corporation), human FGF2 (ProSpec), human IGF1 (ProSpec), human SDF1 (Prospec) and human CLCF1 (R&D Systems). To induce starvation, cells were cultured for 24 hours in full media, washed in PBS and cultured for additional 4 hours in HBSS media (Invitrogen).
(§2) For western blot analysis, lysosomal protease inhibitor E64d (Sigma) was added at a concentration of 10 μg/mL for the last 8-12 hours before cell lysis.
(§3) For western blots, cells were lysed in Lammeli sample buffer, resolved on a 10-12% SDS-PAGE gel and transferred to PVDF membrane. The following antibodies were used: LC3 (Novus), p62 (Pharmigen), phospho-S6K (Thr389), phospho-Akt (Ser473), phospho-Stat3 (Tyr705), RelA, Sod1, phospho-PTEN (Ser380/Thr382/383) (all Cell Signaling), Bcl-2 (Santa Cruz), all at 1:1000, phospho-S6 (Ser235/236) (Cell Signaling) and phospho-ERK 1/2 (Sigma) at 1:2000, tubulin (Sigma) at 1:5000. Where indicated, blots were quantified using NIH ImageJ64 software.
A general note: A western blot detects proteins with antibodies after separation by electrophoresis.

Test [2] deals with H4 cells. As to the kind of experiment: Western blot of signalling phosphorylation (phospho-ERK1/2, RSK, Stat3, Akt, Foxo3a, S6K). The conditions noted are these: for activating phosphorylation of Stat3: H4, 50 ng/mL LIF or CLCF1. As to the method:
as §1, §3

Test [3] relates to H4 cells stably expressing LC3-GFP. As to the kind of experiment: LC3-GFP translocation to autophagosomes, image-based autophagy assay. The conditions noted are these: for autophagy as measured by LC3-GFP translocation: H4 LC3-GFP cells grown in serum-free medium, treated with cytokine. As to the method:
(§4) H4 human neuroblastoma cells were cultured under standard tissue culture conditions in DMEM media supplemented with 10% normal calf serum, penicillin/streptomycin, sodium pyruvate (Invitrogen) and, where appropriate, 0.4-1.2 mg/mL G418. LC3-GFP and FYVE-dsRed H4 cells were generated as described in Zhang et al., PNAS, 102, 15545-15550 ([…]). To create a stable line expressing Lamp1, H4 cells were transfected with Lamp1-RFP plasmid using TRANSIT_LT1® transfection reagent (Mirus), followed by selection with 0.4 mg/mL G418. Bcl-2 expressing cell lines were created by infecting LC3-GFP and FYVE-dsRed H4 cells with pBabe-Bcl-2 retrovirus, followed by selection with 1 μg/mL puromycin.
as §1, §2
For the primary screens, an arrayed library of 21,121 siRNA pools covering the majority of the human genome were used (Dharmacon siARRAY™ siRNA library (Human Genome, G-005000-05), Thermo Fisher Scientific, Lafayette, Colo.). Each pool contained of 4 unique oligonucleotides targeting different sequences from the same gene. Each assay plate also included the following controls: non-targeting siRNA, mTOR siRNA, ATG5 siRNA and PLK1 siRNA (a transfection efficiency control). siRNAs were transiently transfected in triplicate into H4 cells stably expressing a LC3-GFP reporter at a final concentration of 40 nM using reverse transfection with the […]® reagent (Qiagen). […]® reagent was diluted 1:20 in DMEM and 8 μl of the mixture was added to wells of 384 well plates. The plates were centrifuged at 1,000 rpm, after which 2 μl of 1 μM arrayed siRNA pools were added to each well. After 30 minutes of incubation, 500 cells in 40 μl of media were added to the wells. Cells were incubated for 72 hours under standard culture conditions, counterstained with 0.5 μM Hoechst 33342 (Invitrogen) for 1 hour and fixed by addition of 30 μl of 8% paraformaldehyde. After 30 minutes, cells were washed 3 times with PBS prior to analysis.
For secondary screens, a siRNA library was used in which the 4 siRNAs of each siRNA pool were separated into individual wells. The cells were transfected and treated as in the primary screen, except that siRNAs were used at a final concentration of 30 nM (1.5 μL/well of 1 uM stock) and […]® reagent was diluted 1:30 in OPTIMEM™ (Invitrogen). The secondary screen transfections were done in 2 rounds: in the first one a 1:1 mixture of H4 cells stably expressing LC3-GFP with FYVE-dsRed was transfected in triplicate; in the second round a 1:1 mixture of H4 cells expressing LC3-GFP with Lamp1-RFP was transfected in duplicate. All tertiary characterization screens were done in duplicate using a mixture of LC3-GFP and FYVE-dsRed cells. Each assay plate included 10-12 wells of non-targeting siRNA as well as mTOR, ATG5, PLK1 and, depending on screen, Vps34 or SOD1 siRNA controls.
(§5) For high-throughput screens, cells were imaged on an automated CellWoRx microscope (Applied Precision) at 10× magnification using 2 wavelengths (350 nm to detect Hoechst, 488 nm to detect LC3-GFP) for the primary screens and 3 wavelengths (350 nm, 488 nm and 550 nm to detect Lamp1-RFP or FYVE-dsRed) for the secondary screens.

For test [4], the system named is type III PI3 kinase. As to the kind of experiment: FYVE-dsRed vesicle recruitment (PtdIns3P levels). As to conditions: FYVE-dsRed cells, 3MA 10 mM 8 hours or NAC. Here is the method: as §4, §5
For test [5], the system named is GRP78 and GRP94. As to the kind of experiment: In-cell-western of KDEL (GRP78/GRP94) expression, ER stress. As to conditions: H4 cells. As to the method:
For quantitative analysis of mTORC1 signaling and induction of endoplasmic reticulum stress, in-cell-western analysis of rpS6 phosphorylation and KDEL (GRP78/GRP94) expression (‘KDEL’ disclosed as SEQ ID NO: 2), respectively, were performed. H4 cells were cultured in 384-well plates and fixed and counterstained as described for the LC3-GFP assay. Following imaging, the cells were permeabilized in PBS containing 0.2% Tx-100 and stained with ALEXA FLOUR®—680NHS-ester, a non-specific lysine reactive probe used to measure relative cell number, at 20 ng/mL for 15 minutes. Subsequently, the cells were washed with PBS containing 0.2% Tx-100 and incubated for 30 minutes in blocking buffer (LICOR® Blocking Buffer diluted 1:1 with PBS+0.2% Tx-100). Cells were then incubated overnight with a rabbit-anti-rpS6 phospho-235/236 (Cell Signaling Technologies), or mouse-anti-KDEL (Stressgen) antibody (‘KDEL’ disclosed as SEQ ID NO: 2) diluted 1:1000 in blocking buffer. […] The intensities of both, the rpS6 phospho-235/236 or KDEL staining (‘KDEL’ disclosed as SEQ ID NO: 2), and of NHS-ester staining were integrated, and the normalized phospho-S6 or KDEL score (‘KDEL’ disclosed as SEQ ID NO: 2) were calculated by dividing phospho-rpS6 or KDEL intensity (‘KDEL’ disclosed as SEQ ID NO: 2) by NHS-ester intensity. […]

As for `O=c1[nH]c2ccccc2n1C1CCN(Cc2ccc(-c3nc4cc5[nH]cnc5cc4nc3-c3ccccc3)cc2)CC1` [Akt inhibitor VIII, reference compound], the “inhibition of autophagy by IGF1, effect of Akt inhibitor” value in test [1] (100 ng/mL IGF1, LC3 western) is on record as “prevented inhibition of autophagy by IGF1”. In addition, the “phosphorylation of Foxo3a and S6 kinase” value in test [2] (IGF1-treated cells with Akt inhibitor VIII) was “attenuated phosphorylation of both Foxo3a and the mTORC1 target S6 kinase”.

With `CC(=O)N[C@@H](CS)C(=O)O` [NAC, N-acetyl-L-cysteine, reference compound], the “induction of autophagy caused by knock-down of Sod1” value in test [3] (H4 LC3-GFP, with antioxidant NAC 2.5 mM) is recorded as “significantly attenuated induction of autophagy”. For the same molecule, in test [4], the “Aβ-induced accumulation of PtdIns3P in presence of inhibitor or antioxidant” value is recorded as “suppressed”.

Turning to `N#CC(=C(/N)Sc1ccccc1N)/C(C#N)=C(/N)Sc1ccccc1N` [UO126, reference compound], the “inhibition of autophagy by FGF2, effect of MEK inhibitor” value in test [1] (H4, serum-free, 50 ng/mL FGF2, 10 μg/mL E64d, pre-treatment with UO126) is listed as “attenuated inhibition of autophagy; also recorded: prevented”.

With “FGF2: human FGF2 (ProSpec); fibroblast growth factor 2 (basic)”, the “autophagy by LC3 western blot (LC3 II/tubulin ratio)” value (“autophagy … (LC3 II/tubulin ratio)” below) in test [1] (H4, serum-free) was “able to suppress autophagy in the absence and presence of rapamycin”. Besides, in test [2] (H4, serum-free, 50 ng/mL FGF2), the “phospho-ERK1/2 and phospho-RSK levels” value is “increased level of phospho-ERK1/2 and phospho-RSK”. Moreover, the “autophagy as measured by LC3-GFP translocation” value (shortened to “autophagy as measured”) in test [3] is recorded as “significant down-regulation of autophagy”.

Take “IGF1: human IGF1 (ProSpec); insulin-like growth factor 1”: in test [1] (H4, serum-free), the “autophagy … (LC3 II/tubulin ratio)” value was “able to suppress autophagy in the absence and presence of rapamycin”. In test [2] (in both the absence and presence of rapamycin, 100 ng/mL IGF1), the “phosphorylation of Akt and Foxo3a” value is “increased”. Further, the “autophagy as measured” value in test [3] is reported as “significant down-regulation of autophagy”.

In the case of “LIF: human LIF (GeneScript Corporation); leukemia inhibitory factor”, the “autophagy … (LC3 II/tubulin ratio)” value in test [1] (H4, serum-free) was “able to suppress autophagy in the absence and presence of rapamycin”. Further, the “activating phosphorylation of Stat3” value in test [2] is “increased activating phosphorylation of Stat3”. In test [3], the “autophagy as measured” value is listed as “significant down-regulation of autophagy”.

As to “SDF1: human SDF1 (Prospec); chemokine SDF1 (CXCL12)”, the “autophagy as measured” value in test [3] was “significant down-regulation of autophagy”.

TNFα: in test [1] (H4 cells, low levels of TNFα (5 ng/ml, FIG. 31B)), the “p62 level by western blot” value is listed as “significant accumulation of p62”. The “autophagy (LC3-GFP), higher doses” value in test [3] (H4 LC3-GFP cells in defined medium, higher doses of TNFα) is on record as “up-regulation of autophagy”. In test [3] (H4 LC3-GFP cells in defined medium, low doses of TNFα), the “autophagy (LC3-GFP), low doses” value is on record as “down-regulation of autophagy”.

In the case of tunicamycin [reference compound], in test [5], the “levels of GRP78 and GRP94 (ER stress markers)” value was “dose-dependent up-regulation of GRP78 and GRP94”. For the same molecule, the “autophagy after ER stress inducer” value in test [3] (H4 cells) is “increase in autophagy”.

B1: CLCF1: human CLCF1 (R&D Systems); cardiotrophin-like cytokine factor 1 (protein, UniProt Q9UBD9 28-225, looked up)
Cardiotrophin-like cytokine …: LNRTGDPGPGPSIQKTYDLTRYLEHQLRSLAGTYLNYLGPPFNEPDFNPPRLGAETLPRATVDLEVWRSLNDKLRLTQNYEAYSHLLCYLRGLNRQAATAELRRSLAHFCTSLQGLLGSIAGVMAALGYPLPQPLPGTEPTWTPGPAHSDFLQKMDDFWLLKELQTWLWRSAKDFNRLKKKMQPPAAAVTLHLGAHGF
As for B1, the “autophagy … (LC3 II/tubulin ratio)” value in test [1] (H4, serum-free) was “able to suppress autophagy in the absence and presence of rapamycin”. The “activating phosphorylation of Stat3” value in test [2] is “increased activating phosphorylation of Stat3”. In addition, in test [3], the “autophagy as measured” value is reported as “significant down-regulation of autophagy”.
